Source: US20080153896A1, “Polymorphic Forms of an HMG-CoA Reductase Inhibitor and Uses Thereof” (priority 2006, published 2008)

Test: Stability (integrity) testing of amorphous and polymorphic form under storage conditions, RP-HPLC
Type: physicochemical
Set-up: key to Impurity RRT 0.738 / Impurity RRT 0.949 / Impurity RRT 1.050 / Impurity RRT 1.550 / Impurity RRT 0.136 / Impurity RRT 0.720 / Impurity RRT 0.706 / Impurity RRT 1.18 / Impurity RRT 1.826: % of total UV absorption (HPLC peak area); Impurity RRT 1.104 / Impurity RRT 1.698: unit not given beside the values
Settings: for Total: in %
Protocol: The integrity of the different forms of the (3R, 5R)-7-[2-(4-fluorophenyl)-5-isopropyl-3-phenyl-4-[(4-hydroxymethylphenylamino)carbonyl]-pyrrol-1-yl]-3,5-dihydroxy-heptanoic acid, hemi calcium salt, was tested under different atmospheric conditions to determine the stability of the amorphous and polymorphic form of the drug in various storage environments. Reversed Phase-HPLC (RP-HPLC) was used to separate (3R, 5R)-7-[2-(4-fluorophenyl)-5-isopropyl-3-phenyl-4-[(4-hydroxymethylphenylamino)carbonyl]-pyrrol-1-yl]-3,5-dihydroxy-heptanoic acid, hemi calcium salt, from smaller molecules representing breakdown products as well as oxidized drug. The relative amount of the drug was reported as a percent of total absorption by UV. The total peak area of all UV absorption impurities was used to define total impurity of the drug. Impurities are defined by their relative retention time (RRT) compared to native drug. Samples were injected onto a C18 column using standard temperature, gradient and run-time conditions.
The results of this integrity testing for the amorphous form of (3R, 5R)-7-[2-(4-fluorophenyl)-5-isopropyl-3-phenyl-4-[(4-hydroxymethylphenylamino)carbonyl]-pyrrol-1-yl]-3,5-dihydroxy-heptanoic acid, hemi calcium salt, is shown in Table 5.
Three separate batches of polymorphic Form I of (3R, 5R)-7-[2-(4-fluorophenyl)-5-isopropyl-3-phenyl-4-[(4-hydroxymethylphenylamino)carbonyl]-pyrrol-1-yl]-3,5-dihydroxy-heptanoic acid, hemi calcium salt, were prepared and tested under the same atmospheric conditions described for the amorphous form.

For `CC(C)c1c(C(=O)Nc2ccc(CO)cc2)c(-c2ccccc2)c(-c2ccc(F)cc2)n1CC[C@@H](O)C[C@@H](O)CC(=O)[O-].CC(C)c1c(C(=O)Nc2ccc(CO)cc2)c(-c2ccccc2)c(-c2ccc(F)cc2)n1CC[C@@H](O)C[C@@H](O)CC(=O)[O-].[Ca+2]` [PP00204, (3R, 5R)-7-[2-(4-fluorophenyl)-5-isopropyl-3-phenyl-4-[(4-hydroxymethylphenylamino)carbonyl]-pyrrol-1-yl]-3,5-dihydroxy-heptanoic acid, hemi calcium salt], the “Impurity RRT 0.731” value (5° C. 1 month) was 0.030, the “Impurity RRT 0.832” value (5° C. 1 month) was 0.034 and the “Impurity RRT 0.876” value (5° C. 1 month) was 0.150. For the same compound, the “Impurity RRT 0.952” value (5° C. 1 month) was 0.040, the “Impurity RRT 0.965” value (5° C. 1 month) was 0.532 and the “Impurity RRT 0.974” value (5° C. 1 month) was 0.052. For the same compound, the “Impurity RRT 0.991” value (5° C. 1 month) was 0.022, the “Impurity RRT 1.024” value (5° C. 1 month) was 0.459 and the “Impurity RRT 1.041” value (5° C. 1 month) was 0.585. For the same compound, the Total (5° C. 1 month) was 1.904, the “Impurity RRT 0.885” value (5° C. 2 months) was 0.177 and the “Impurity RRT 0.952” value (5° C. 2 months) was 0.048. For the same compound, the “Impurity RRT 0.965” value (5° C. 2 months) was 0.501, the “Impurity RRT 0.974” value (5° C. 2 months) was 0.067 and the “Impurity RRT 0.991” value (5° C. 2 months) was 0.029. For the same compound, the “Impurity RRT 1.024” value (5° C. 2 months) was 0.508, the “Impurity RRT 1.041” value (5° C. 2 months) was 0.604 and the Total (5° C. 2 months) was 1.934. The “Impurity RRT 0.892” value (5° C. 3 months) was 0.161, the “Impurity RRT 0.965” value (5° C. 3 months) was 0.550 and the “Impurity RRT 0.981” value (5° C. 3 months) was 0.058. For the same compound, the “Impurity RRT 1.024” value (5° C. 3 months) was 0.506, the “Impurity RRT 1.041” value (5° C. 3 months) was 0.635 and the Total (5° C. 3 months) was 1.91. The “Impurity RRT 0.731” value (5° C. 6 months) was 0.037, the “Impurity RRT 0.832” value (5° C. 6 months) was 0.028 and the “Impurity RRT 0.876” value (5° C. 6 months) was 0.014. For the same compound, the “Impurity RRT 0.892” value (5° C. 6 months) was 0.016, the “Impurity RRT 0.952” value (5° C. 6 months) was 0.024 and the “Impurity RRT 0.965” value (5° C. 6 months) was 0.552. The “Impurity RRT 1.024” value (5° C. 6 months) was 0.582, the “Impurity RRT 1.041” value (5° C. 6 months) was 0.592 and the “Impurity RRT 1.074” value (5° C. 6 months) was 0.028. The Total (5° C. 6 months) was 1.873, the “Impurity RRT 0.885” value (25° C./60% RH 3 months) was 0.145 and the “Impurity RRT 0.892” value (25° C./60% RH 3 months) was 0.212. For the same compound, the “Impurity RRT 0.965” value (25° C./60% RH 3 months) was 0.542, the “Impurity RRT 0.981” value (25° C./60% RH 3 months) was 0.058 and the “Impurity RRT 1.024” value (25° C./60% RH 3 months) was 0.518. The “Impurity RRT 1.041” value (25° C./60% RH 3 months) was 0.648, the Total (25° C./60% RH 3 months) was 2.123 and the “Impurity RRT 0.731” value (25° C./60% RH 6 months) was 0.031. The “Impurity RRT 0.832” value (25° C./60% RH 6 months) was 0.029, the “Impurity RRT 0.876” value (25° C./60% RH 6 months) was 0.133 and the “Impurity RRT 0.892” value (25° C./60% RH 6 months) was 0.124. For the same compound, the “Impurity RRT 0.952” value (25° C./60% RH 6 months) was 0.037, the “Impurity RRT 0.965” value (25° C./60% RH 6 months) was 0.546 and the “Impurity RRT 1.024” value (25° C./60% RH 6 months) was 0.618. The “Impurity RRT 1.041” value (25° C./60% RH 6 months) was 0.593, the “Impurity RRT 1.074” value (25° C./60% RH 6 months) was 0.068 and the “Impurity RRT 1.104” value (25° C./60% RH 6 months) was 0.037. For the same compound, the Total (25° C./60% RH 6 months) was 2.216, the “Impurity RRT 0.885” value (30° C./55% RH 6 months) was 0.187 and the “Impurity RRT 0.892” value (30° C./55% RH 6 months) was 0.168. For the same compound, the “Impurity RRT 0.965” value (30° C./55% RH 6 months) was 0.699, the “Impurity RRT 1.024” value (30° C./55% RH 6 months) was 0.693 and the “Impurity RRT 1.041” value (30° C./55% RH 6 months) was 0.777. The “Impurity RRT 1.074” value (30° C./55% RH 6 months) was 0.103, the “Impurity RRT 1.104” value (30° C./55% RH 6 months) was 0.032 and the Total (30° C./55% RH 6 months) was 2.659. The “Impurity RRT 0.731” value (30° C./65% RH 1 month) was 0.038, the “Impurity RRT 0.832” value (30° C./65% RH 1 month) was 0.037 and the “Impurity RRT 0.876” value (30° C./65% RH 1 month) was 0.145. The “Impurity RRT 0.892” value (30° C./65% RH 1 month) was 0.038, the “Impurity RRT 0.952” value (30° C./65% RH 1 month) was 0.042 and the “Impurity RRT 0.965” value (30° C./65% RH 1 month) was 0.512. The “Impurity RRT 0.974” value (30° C./65% RH 1 month) was 0.054, the “Impurity RRT 0.991” value (30° C./65% RH 1 month) was 0.018 and the “Impurity RRT 1.024” value (30° C./65% RH 1 month) was 0.464. The “Impurity RRT 1.041” value (30° C./65% RH 1 month) was 0.587, the “Impurity RRT 1.074” value (30° C./65% RH 1 month) was 0.021 and the Total (30° C./65% RH 1 month) was 1.956. The “Impurity RRT 0.885” value (30° C./65% RH 2 months) was 0.154, the “Impurity RRT 0.892” value (30° C./65% RH 2 months) was 0.119 and the “Impurity RRT 0.952” value (30° C./65% RH 2 months) was 0.050. The “Impurity RRT 0.965” value (30° C./65% RH 2 months) was 0.505, the “Impurity RRT 0.974” value (30° C./65% RH 2 months) was 0.042 and the “Impurity RRT 0.991” value (30° C./65% RH 2 months) was 0.022. The “Impurity RRT 1.024” value (30° C./65% RH 2 months) was 0.524, the “Impurity RRT 1.041” value (30° C./65% RH 2 months) was 0.611 and the Total (30° C./65% RH 2 months) was 2.027. For the same compound, the “Impurity RRT 0.832” value (30° C./65% RH 3 months) was 0.046, the “Impurity RRT 0.892” value (30° C./65% RH 3 months) was 0.184 and the “Impurity RRT 0.965” value (30° C./65% RH 3 months) was 0.542. The “Impurity RRT 0.981” value (30° C./65% RH 3 months) was 0.057, the “Impurity RRT 1.024” value (30° C./65% RH 3 months) was 0.516 and the “Impurity RRT 1.041” value (30° C./65% RH 3 months) was 0.638. The Total (30° C./65% RH 3 months) was 1.983, the “Impurity RRT 0.731” value (40° C./75% RH 1 month) was 0.039 and the “Impurity RRT 0.832” value (40° C./75% RH 1 month) was 0.034. The “Impurity RRT 0.876” value (40° C./75% RH 1 month) was 0.125, the “Impurity RRT 0.892” value (40° C./75% RH 1 month) was 0.055 and the “Impurity RRT 0.965” value (40° C./75% RH 1 month) was 0.526. For the same compound, the “Impurity RRT 0.974” value (40° C./75% RH 1 month) was 0.071, the “Impurity RRT 0.991” value (40° C./75% RH 1 month) was 0.024 and the “Impurity RRT 1.024” value (40° C./75% RH 1 month) was 0.464. For the same compound, the “Impurity RRT 1.041” value (40° C./75% RH 1 month) was 0.565, the “Impurity RRT 1.074” value (40° C./75% RH 1 month) was 0.032 and the Total (40° C./75% RH 1 month) was 1.955. The “Impurity RRT 0.738” value (40° C./75% RH 2 months) was 0.042, the “Impurity RRT 0.885” value (40° C./75% RH 2 months) was 0.159 and the “Impurity RRT 0.892” value (40° C./75% RH 2 months) was 0.127. For the same compound, the “Impurity RRT 0.949” value (40° C./75% RH 2 months) was 0.063, the “Impurity RRT 0.965” value (40° C./75% RH 2 months) was 0.547 and the “Impurity RRT 0.991” value (40° C./75% RH 2 months) was 0.027. For the same compound, the “Impurity RRT 1.024” value (40° C./75% RH 2 months) was 0.543, the “Impurity RRT 1.041” value (40° C./75% RH 2 months) was 0.622 and the “Impurity RRT 1.074” value (40° C./75% RH 2 months) was 0.077. The Total (40° C./75% RH 2 months) was 2.207, the “Impurity RRT 0.892” value (40° C./75% RH 3 months) was 0.189 and the “Impurity RRT 0.965” value (40° C./75% RH 3 months) was 0.548. The “Impurity RRT 0.981” value (40° C./75% RH 3 months) was 0.065, the “Impurity RRT 1.024” value (40° C./75% RH 3 months) was 0.515 and the “Impurity RRT 1.041” value (40° C./75% RH 3 months) was 0.632. For the same compound, the “Impurity RRT 1.104” value (40° C./75% RH 3 months) was 0.074, the Total (40° C./75% RH 3 months) was 2.023 and the “Impurity RRT 0.731” value (40° C./75% RH 6 months) was 0.031. For the same compound, the “Impurity RRT 0.832” value (40° C./75% RH 6 months) was 0.031, the “Impurity RRT 0.876” value (40° C./75% RH 6 months) was 0.152 and the “Impurity RRT 0.892” value (40° C./75% RH 6 months) was 0.19. The “Impurity RRT 0.952” value (40° C./75% RH 6 months) was 0.022, the “Impurity RRT 0.965” value (40° C./75% RH 6 months) was 0.497 and the “Impurity RRT 1.024” value (40° C./75% RH 6 months) was 0.460. For the same compound, the “Impurity RRT 1.041” value (40° C./75% RH 6 months) was 0.573, the “Impurity RRT 1.050” value (40° C./75% RH 6 months) was 0.094 and the “Impurity RRT 1.074” value (40° C./75% RH 6 months) was 0.025. For the same compound, the “Impurity RRT 1.104” value (40° C./75% RH 6 months) was 0.037, the Total (40° C./75% RH 6 months) was 2.112 and the “Impurity RRT 0.876” value (Initial) was 0.146. The “Impurity RRT 0.965” value (Initial) was 0.560, the “Impurity RRT 0.991” value (Initial) was 0.022 and the “Impurity RRT 1.024” value (Initial) was 0.464. For the same compound, the “Impurity RRT 1.041” value (Initial) was 0.581 and the Total (Initial) was 1.703.
